{"source": "paper PMC6756013", "about": "“B591, a novel specific pan-PI3K inhibitor, preferentially targets cancer stem cells” (Oncogene, 2019)", "key": {"[1]": {"tested_on": "SUM-159PT orthotopic xenografts", "test": "Tumor recurrence study in SUM-159PT xenografts", "type": "in vivo, NOD/SCID mice", "settings": "B591 10 mg/kg", "procedure": "Fig. 6 B591 reduces breast tumor metastasis and recurrence. a Representative images show the effect of B591 (8 mg/kg) on lung metastasis of 4T1 cells, and data from six mice were plotted. b SUM-159PT cells were respectively treated with the indicated agents (8 nM Paclitaxel, 8 nM Paclitaxel plus 5 μM B591) for 24 h, the cells were then cultured for mammospheres. Representative images were shown, and data from two independent experiments were plotted. c–f SUM-159PT xenografts (n = 7) were treated with 4 mg/kg Paclitaxel, or 10 mg/kg B591, or both for 2 weeks, then ended the treatment and waited for tumor recurrence. Tumor volume (c) and body weight (d) were measured every 2 days after treatment, and tumors were photographed (e) and weighted (f) at the end of the experiment. ^*p < 0.05, ^**p < 0.01 versus indicated groups\nIn the tumor recurrence study, orthotopic xenografts were established with 5 × 10^6 SUM-159PT cells. When tumor volume reached about 50 mm^3, mice were randomly divided into four groups for treatment with vehicle, 4 mg/kg Paclitaxel, 10 mg/kg B591, and combination of 4 mg/kg Paclitaxel plus 10 mg/kg B591 (i.p.). Treatment was stopped after 2 weeks, and the tumors were allowed for recurrence for 3 weeks. Tumor volume and the body weight of mice were measured during the experiments. In the end of treatment, the mice were killed, and the tumor tissues were dissected and weighted."}, "[2]": {"tested_on": "CHO cells stably expressing EGFP-Akt1", "test": "Akt1 redistribution (IGF-1-stimulated membrane translocation of EGFP-Akt1)", "type": "cell-based", "excerpt": "Growth factors such as insulin-like growth factor 1 (IGF-1) and cytokines such as interleukin-6 stimulate and activate PI3K, leading to a subsequent increase of plasma membrane translocation and phosphorylation of Akt. Activated Akt promotes cell survival, cell growth and proliferation in human cancers.\nFig. 2 B591 inhibits PI3K/Akt pathway in multiple cancer cell lines. a Representative images of Akt1 redistribution in IGF-1-treated cells in the absence or presence of B591. Scale bar represents 10 μm. Arrows indicate IGF-1-mediated membrane translocation detected by the image analysis algorithm. b Inhibition of mTORC1 and mTORC2 signaling in multiple cancer cell lines, exposed for 5 h to increasing concentrations of B591. c HepG2 cells were treated with DMSO or 20 μM of B591 for 5 h. Immunofluorescence (red) intensity reflects eIF4E subcellular distribution. Cells were visualized with high content reader. Representative images are shown, and scale bar represents 50 μm. d Nuclear-to-cytoplasmic ratio of eIF4E in five cancer cell lines was determined via high content reader. e The phosphorylation of AKT and ERK was determined by immunoblotting in RD cells in the presence of 10 μM of B591 after indicated time of exposure. f Inhibition of the phosphorylation of AKT and ERK in RD cells treated with B591, PI-103 or Rapamycin for 24 h was determined by immunoblotting […]"}, "[3]": {"tested_on": "PIP3/PI(4,5)P2 ratio in HCT116 cells", "test": "Cellular PI3K kinase assay (PIP3 and PI(4,5)P2 ELISA)", "type": "cell-based", "settings": "10 h treatment", "procedure": "Cells were seeded at density of 3 × 10^7 cells/150 mm dish. After treatment with different concentrations of B591 for 10 h, the media was removed and 10 ml of ice-cold 0.5 M TCA was immediately added. Incubate cells on ice for 5 min. Cells were scraped and centrifuged at 3000 rpm for 7 min at 4 ℃. The pellet was resuspended in 3 ml of 5% […] acid/1 mM EDTA, vortexed for 30 s, and centrifuged at 3000 rpm for 5 min. The supernatant was discarded and the cells was washed one more time. Afterward, neutral lipids were extracted adding 3 ml of MeOH:CHCl3 (2:1) and continuously vortexing for 10 min at room temperature. Extracts were centrifuged at 3000 rpm for 5 min, the supernatant was discarded, and this extraction step was repeated one more time. The acidic lipids were extracted adding 2.25 ml MeOH:CHCl3:12 M HCl (80:40:1) with continuous vortexing over 25 min at room temperature. Extracts were centrifuged at 3000 rpm for 5 min and the supernatant was transferred to a new 15 ml tube; 0.75 ml of CHCl3 and 1.35 ml of 0.1 M HCl were added to the supernatant, vortexed, and centrifuged at 3000 rpm for 5 min to separate organic and aqueous phases. […] Once phospholipids were isolated from cells, PIP3 and PI(4,5)P2 levels were measured using ELISA kits (Echelon, K-2500s and K4500) according to the manufacturer’s instructions."}}}
{"smiles": "Cc1cc2c(cc1C)[n+](Cc1ccccc1Br)cn2Cc1ccc2c(c1)CCO2.[Br-]", "note": "[B591, 3-(2-bromobenzyl)-1-((2,3-dihydrobenzofuran-5-yl)methyl) -5,6-dimethyl-1H-benzo[d]imidazol-3-ium bromide]", "values": [{"measurement": "Body weight", "setting": "[1]; with or without paclitaxel 4 mg/kg", "result": "no significant body weight loss"}, {"measurement": "Tumor growth and regrowth after end of treatment", "setting": "[1]; paclitaxel 4 mg/kg, i.p., 2 weeks, then 3 weeks recurrence", "result": "significant inhibition of tumor growth and notably delayed the relapse of breast cancer following cessation of paclitaxel treatment"}, {"measurement": "IGF-1-stimulated translocation of Akt to the plasma membrane", "setting": "[2]", "result": "potently prevented this translocation event in a concentration-dependent manner"}, {"measurement": "IC50 for decrease of PIP3/PI(4,5)P2 ratio", "setting": "[3]", "result": 1.910, "unit": "µM"}]}
